From article PMC12093266, “Synergistic action of two radical SAM enzymes in the biosynthesis of thuricin CD, a two-component sactibiotic” (Chemical Science, 2025)
Numbered stars: 1 amine (or outer) side, 2 acyl side, 3 side chain; on linkers, the order of the positions; unused ones are H or OH. Bridge positions count the residues as written; N and C are the ends. Square brackets hold non-standard residues; d marks the D form. Peptide text beside a SMILES is read from it. X3 = O=C([C@@](Cc1ccc(O)cc1)(N[*:1])[*:3])[*:2]; X5 = C[C@@H](O)[C@@](N[*:1])(C(=O)[*:2])[*:3]; X1 = C[C@@H](O)[C@](N[*:1])(C(=O)[*:2])[*:3]; X4 = O=C([C@](CO)(N[*:1])[*:3])[*:2]; X2 = C[C@](N[*:1])(C(=O)[*:2])[*:3]

Columns and labels:
[1] = system: Bacillus cereus; experiment: Disk diffusion susceptibility test; type: cell-based; settings: 5 μL of 100 μM peptide (each) on filter paper, BHI agar, 30 °C, 15-20 h
Procedure: In vitro susceptibility test
Briefly, the liquid Brain Heart Infusion (BHI) agar (3.2 % BHI, 1.5% agar) was cooled to 42 °C and seeded with 100 μL of dense overnight culture (approximately 10 8-109 CFU mL -1) of Bacillus cereus. […] Kanamycin and 30% isopropanol were used
Spot 4: 5 μL 0.1 mg/ml kanamycin; Spot 5: 5 μL 30% isopropanol.

[2] = system: Bacillus cereus; type: cell-based; settings: B. cereus in LB, 96-well plate, serial dilution, 30 °C, 16 h, OD600; lowest concentration with <10% OD increase over kanamycin well; HPLC-purified peptides in 30% isopropanol; '>' = no inhibition observed at that concentration
Procedure: To test whether the thuricin CD variant obtained in E. coli was bioactive, we performed disk diffusion susceptibility tests with trnα′ and trnβ′ using Bacillus cereus as a test strain. […]
the elution fraction (1: 200 (v/v) ratio), and the resulting solution was then kept overnight for digestion at 4 °C. The resulting solution was heat-inactivated at 95 °C for 10 min followed by freezing at -80 °C for 1 h, and was subjected to centrifugation (13000 × g for 15 min at 4 °C) to remove any precipitates. The resulting solutions containing TrnA or TrnB were directly used in downstream analysis or frozen at -80 °C […]
Production of trnα’ and trnβ’
The modified TrnA and TrnB solutions were mixed with GluC (2 mg/ml stock solution) in a 50:1 (v/v) ratio and the proteolytic reaction was proceeded at room temperature for 2hr. The reaction mixture was subsequently quenched by methanol, and was lyophilized after centrifugation to remove any protein precipitate. The resulting sample was then dissolved in 30% isopropanol and injected onto a reverse phase Phenomenex Aeris PEPTIDE XB-C18 column (250 x 10 mm, 5 μm). […]
as a positive and negative controls, respectively. […] The OD600 was read on a SP-Max 2300A plate reader. […]

| Compound | inhibition in disk diffusion test [1] | minimal inhibition concentration (MIC) [2] [µM] |
| --- | --- | --- |
| CC[C@H](C)[C@H](N)C(=O)NCC(=O)NCC(=O)N[C@@H](CC(N)=O)C(=O)N[C@@H](C)C(=O)N[C@@H](C)C(=O)N[C@H]1CS[C@](C(=O)N[C@@H](CC(C)C)C(=O)NCC(=O)O)([C@@H](C)O)NC(=O)[C@H](Cc2ccccc2)NC(=O)[C@H](C)NC(=O)[C@]2([C@@H](C)O)NC(=O)CNC(=O)[C@H](C(C)C)NC(=O)[C@H](CC(C)C)NC(=O)[C@]3(CO)NC(=O)CNC(=O)[C@H]([C@@H](C)CC)NC(=O)CNC(=O)[C@H](CCC(=O)O)NC(=O)[C@H](CO)NC(=O)[C@H]([C@@H](C)CC)NC(=O)[C@H](C(C)C)NC(=O)[C@H](CS3)NC(=O)[C@H](CO)NC(=O)CNC(=O)[C@H]([C@@H](C)CC)NC(=O)[C@H](CS2)NC(=O)CNC(=O)[C@H]([C@@H](C)CC)NC(=O)[C@H](C(C)C)NC1=O [trnα′] (H-IGGNAACVIGCIGSCVISEGIG[X4]LVG[X1]AF[X5]LG-OH; thioether 7-30, 11-27, 15-23; N-terminus and C-terminus assumed) | no activity | > 50 |
| CC(C)C[C@H](NC(=O)[C@H](Cc1ccccc1)NC(=O)[C@@]1(Cc2ccc(O)cc2)NC(=O)[C@H](CO)NC(=O)[C@H](C)NC(=O)[C@]2(C)NC(=O)[C@H](C)NC(=O)[C@H](Cc3ccccc3)NC(=O)[C@H](CCC(=O)O)NC(=O)[C@]3([C@@H](C)O)NC(=O)CNC(=O)[C@H](C(C)C)NC(=O)CNC(=O)CNC(=O)[C@H](CO)NC(=O)[C@H](C)NC(=O)[C@H](CC(C)C)NC(=O)[C@H](CS3)NC(=O)[C@H](C(C)C)NC(=O)[C@H]([C@@H](C)O)NC(=O)CNC(=O)[C@H](CS2)NC(=O)[C@H](C)NC(=O)CNC(=O)[C@H](C(C)C)NC(=O)[C@@H](NC(=O)[C@H](C)NC(=O)[C@@H](NC(=O)[C@H](Cc2c[nH]c3ccccc23)NC(=O)CNC(=O)CNC(=O)[C@@H](N)C(C)C)C(C)C)CS1)C(=O)O [trnβ′] (H-VGGWVACVGACGTVCLASGGVG[X1]EFA[X2]AS[X3]FL-OH; thioether 7-30, 11-27, 15-23; N-terminus and C-terminus assumed) | no activity | > 50 |
